{"source": "patent EP0937459A2", "about": "“Pharmaceutical compositions for the treatment of ischemic brain damage” (Sumitomo Pharmaceuticals Company, Limited, priority 1998, dated 1999)", "key": {"[1]": {"test_system": "cultured glial cells", "settings": "Kempski et al., Stroke 19, 385-392, 1988; cited from earlier work"}, "[2]": {"test_system": "ischemic animal models", "settings": "ischemic animal models in vivo; literature; cited from earlier work"}, "[3]": {"test_system": "rats with transient ischemia", "assay": "Brain edema (brain water content) in rats with transient ischemia", "assay_type": "in vivo", "experimental": "Male rats were anesthetized with halothane mixed with nitrous oxide. The cervical region was dissected to ligate the left external carotid artery and the left common carotid artery. Occlusion was induced for 2 hours in the control section at the origin of the middle cerebral artery by inserting a nylon thread through the left internal carotid artery to reach the left middle deutocerebral artery. Reperfusion through the middle cerebral artery was established by withdrawing the nylon thread. The test compound was intravenously given to the animals an hour after the occlusion in a volume of 1 ml/kg. As the test compound, a solution of Compound 1 (0.3 mg/ml or 1 mg/ml) in 8% polyethylene glycol #400 was used. For control, the vehicle alone (8% polyethylene glycol #400) containing no active compound was used. The animals were decapitated 4 hours after reperfusion and the brain was removed. Coronal sections of 4 mm thick were prepared in the ipsilateral hemisphere from 1 mm anterior to 3 mm posterior of the bregma. After the wet weight (W) of each section was weighed, the section was dried in an oven at 110°C for 24 hours and then its dry weight (D) was weighed. The brain water content (WC) was calculated according to the following equation. WC = (W - D) / W x 100 [formula] In the normal control group, the brain water content was 79.9 ± 0.1% (mean ± standard error in 15 cases); however, by reperfusion following the occlusion, the brain water content in the control group increased to 83.3 ± 0.3% (mean + standard error in 15 cases).\n(§1) Compound 2 was elucidated for the effect on brain edema in a manner similar to that of Example 4. The test compound was intravenously given immediately after the reperfusion to the animals in a volume of 1 ml/kg. As the test compound, a solution of Compound 2 (1 mg/ml) in 8% polyethylene glycol #400 was used. For control, the vehicle (8% polyethylene glycol #400) containing no active compound was used.\nas §1, with “3” for “2”, “3 (0.3 mg/ml or 1” for “2 (1”, “vehicle alone” for “vehicle”"}, "[4]": {"test_system": "transient ischemic rats", "assay": "Infarcted area in rats with transient ischemia (2 h middle cerebral artery occlusion, then reperfusion)", "assay_type": "in vivo", "settings": "1 mg/ml", "experimental": "Male rats were anesthetized with halothane mixed with nitrous oxide. The cervical region was dissected to ligate the left external carotid artery and the left common carotid artery. Occlusion was induced for 2 hours in the control section at the origin of the middle cerebral artery by inserting a nylon thread through the left internal carotid artery to reach the left middle deutocerebral artery. Reperfusion through the middle cerebral artery was established by withdrawing the nylon thread. The test compound was intravenously given to the animals in a volume of 1 ml/kg at 30 minutes after the occlusion. As the test compound, a solution of Compound 1 (1 mg/ml) in 8% polyethylene glycol #400 was used. For control, the vehicle (8% polyethylene glycol #400) containing no active compound was used. The animals were decapitated 22 hours after reperfusion and the brain was removed. Coronal sections of 2 mm thick were prepared in the ipsilateral hemisphere from 3 mm anterior to 5 mm posterior of the bregma. The sections were stained with 2,3,5-triphenyltetrazolium chloride for photographing. The photographs were scanned with a scanner (GT-8000, Epson) for computer-based image analysis (software used, Ep Scan Mac 1. 40). The rate of the infarcted area of each section in the left hemisphere was analyzed by a computer (software used, NIH image 1.59). The pharmacological effect was evaluated by mean percentage of the infarcted areas in the five sections obtained in one rat.\nas §1, with “the infarcted area” for “brain edema”, “1.” for “4.”, “intraperitoneally” for “intravenously”, “30 minutes before” for “immediately after”, “occlusion” for “reperfusion”\nCompound 3 was elucidated for the effect on the infarcted area in a manner similar to that of Example 1. […]"}}}
{"smiles": "CC(=O)Nc1nnc(S(N)(=O)=O)s1", "note": "[acetazolamide]", "values": [{"measurement": "cell swelling induced by acid loading", "setting": "[1]", "result": "cell swelling was prevented"}, {"measurement": "effect of preventing cerebral edema", "setting": "[2]", "result": "no significant effect of preventing cerebral edema"}]}
{"smiles": "N=C(N)NC(=O)c1cc2c(Cl)ccc3c2n1CCCCC3=O", "note": "[Compound 3, N-(aminoiminomethyl)-5,6,7,8-tetrahydro-11-chloro-8-oxo-4H-azocino[3,2,1-hi]indole-2-carboxamide methanesulfonate monohydrate]", "values": [{"measurement": "brain water content", "setting": "[3]; 0.3 mg/kg intravenously immediately after the reperfusion, mean ± standard error in 9 cases, normal control 79.2 ± 0.2%, control group 82.8 ± 0.3%, tendency", "result": "82.4 ± 0.3", "unit": "%"}, {"measurement": "brain water content", "setting": "[3]; 1 mg/kg intravenously immediately after the reperfusion, mean ± standard error in 11 cases, normal control 79.2 ± 0.2%, control group 82.8 ± 0.3%, tendency", "result": "81.7 ± 0.4", "unit": "%"}, {"measurement": "infarcted area observed in each section", "setting": "[4]; 1 ml/kg intraperitoneally immediately after the occlusion, mean ± standard error in 13 cases, control group 55.4 ± 2.1%, p<5%", "result": "45.2 ± 2.2", "unit": "%"}]}
{"smiles": "Cn1c(C(=O)N=C(N)N)cc2ccccc21", "note": "[Compound 1, 1-methyl-2-indoloylguanidine methanesulfonate]", "values": [{"measurement": "brain water content", "setting": "[3]; 0.3 mg/kg intravenously an hour after the occlusion, 4 hours after reperfusion, mean ± standard error in 16 cases, normal control 79.9 ± 0.1%, control group 83.3 ± 0.3%, p<1%", "result": "82.6 ± 0.3", "unit": "%"}, {"measurement": "brain water content", "setting": "[3]; 1 mg/kg intravenously an hour after the occlusion, 4 hours after reperfusion, mean ± standard error in 16 cases, normal control 79.9 ± 0.1%, control group 83.3 ± 0.3%, p<1%", "result": "82.2 ± 0.3", "unit": "%"}, {"measurement": "mean infarcted area observed in each section", "setting": "[4]; 1 ml/kg intravenously 30 minutes after the occlusion, 22 hours after reperfusion, mean ± standard error in 8 cases, control group 47.9 ± 3.6%, p<5%", "result": "35.4 ± 3.1", "unit": "%"}]}
{"smiles": "Cc1cccc2c1cc(C(=O)N=C(N)N)n2C", "note": "[Compound 2, 1,4-dimethyl-2-indoloylguanidine methanesulfonate]", "values": [{"measurement": "brain water content", "setting": "[3]; 1 mg/ml, 1 ml/kg intravenously immediately after the reperfusion, mean ± standard error in 11 cases, normal control 78.7 ± 0.1%, control group 81.9 ± 0.4%, no significant effect", "result": "82.0 ± 0.4", "unit": "%"}, {"measurement": "infarcted area observed in each section", "setting": "[4]; 1 ml/kg intraperitoneally 30 minutes before the occlusion, mean ± standard error in 5 cases, control group 49.5 ± 4.1%, p<1%", "result": "26.6 ± 3.1", "unit": "%"}]}
{"smiles": "N=C(N)NC(=O)c1nc(Cl)c(N)nc1N", "note": "[amiloride]", "values": [{"measurement": "cell swelling induced by acid loading", "setting": "[1]", "result": "attenuated cell swelling"}]}
